As usually defined, the efflux ratio is a quotient of directional permeabilities that is used to spot active efflux. One may read the Papp A→B as how fast a substance crosses the layer from the apical side. A higher Papp A→B goes with ready permeation. By Papp B→A is commonly meant how fast a substance crosses the layer from the basolateral side. As usually defined, the IC50 is the point on the concentration scale where inhibition reaches its midpoint. As a reminder, the inhibition is the relative decrease from the control value, in per cent. A higher inhibition goes with strong suppression.

The test system of series [1] is Caco-2 cell. The series is described as follows: Caco-2 bidirectional (ABBA) permeability assay. The series is classed as in vitro ADME. Here is the method:
(§1) Materials: test compounds I-A-1, I-A-2, and RBN-2397.
(§2) • (1) Caco-2 cell plating • 1. 600 µL of cell culture medium and 100 µL of cell culture medium were added to the wells of […], respectively; • 2. Before cell inoculation, Transwell was pre-incubated at 37 °C and 5% CO2 for 1 h; • 3. 100 µL of cell suspension (4 × 10^5 cells/mL) was seeded into the culture medium and cultured at 37 °C, 5% CO2, and 95% relative humidity for 14-21 days; • 4. The cell culture medium was replaced once every other day in the first 7 days, and once every day after day 7; • 5. The transepithelial electrical resistance (TEER) of the monolayer membrane was measured using EVOM3. • (2) ABBA process • 1. The plate was washed twice with pre-heated HBSS (10 mM HEPES, pH 7.4) and then incubated at 37 °C for 30 min. • 2. Test compounds were prepared in 1 mM DMSO and diluted 200-fold to 5 µM with HBSS (10 mM HEPES, pH 7.4) and HBSS (100 µM Lucifer Yellow, 10 mM HEPES, pH 7.4). • 3. Apical to basal direction: 200 µL of 5 µM working solution (100 µM Lucifer Yellow) was added to the apical compartment, and 600 µL of HBSS (10 mM HEPES, pH 7.4) was added to the basal compartment. • 4. Basal to apical direction: 600 µL of 5 µM working solution was added to the basal compartment, and 200 µL of HBSS (100 µM Lucifer Yellow, 10 mM HEPES, pH 7.4) was added to the apical compartment. • 5. 100 µL of 5 µM working solution was transferred to a sample plate containing 400 µL of cold methanol, and IS* was C0. • 6. The cell plate was incubated at 37 °C, 5% CO2, and 95% relative humidity for 2 h. • 7. 5 µL of the working solution was transferred from the apical compartment and the basal compartment to the plate. After 0.5 h of incubation, the 427 nm excitation values and 536 nm emission values were read by the Lucifer Yellow leakage detector. • 8. After 2 h of incubation, 100 µL of the solution was transferred from the apical and basal compartments with IS* to a sample plate containing 400 µL of cold methanol. • 9. The sample plate was centrifuged at 3220 g for 40 min. • 10. 100 µL of the supernatant was transferred to an assay plate containing an appropriate volume of water for LC-MS/MS analysis. • (3) Calculation
(§3) The apparent permeability coefficient (Papp, cm/s) and the efflux ratio were calculated using Microsoft Excel. Papp = (VA × Cacceptor × 100)/(Area × Time × Cinitial,donor) [formula] Efflux Ratio = (Papp(B−A))/(Papp(A−B)) [formula] Table 3. Physicochemical properties of test compounds
In general terms: Caco-2 monolayers are a common model of the intestinal barrier.

Series [2] in a line: Caco-2 bidirectional (ABBA) permeability assay. Type of series: in vitro ADME. The settings on record: human, Caco-2. The protocol: as §1, §2, §3
Series [3] deals with T1, PARP7 enzyme (Homo sapiens, UniProt Q7Z3E1).
T1 construct: purchased BPS Bioscience
T1 sequence (Q7Z3E1 1-657): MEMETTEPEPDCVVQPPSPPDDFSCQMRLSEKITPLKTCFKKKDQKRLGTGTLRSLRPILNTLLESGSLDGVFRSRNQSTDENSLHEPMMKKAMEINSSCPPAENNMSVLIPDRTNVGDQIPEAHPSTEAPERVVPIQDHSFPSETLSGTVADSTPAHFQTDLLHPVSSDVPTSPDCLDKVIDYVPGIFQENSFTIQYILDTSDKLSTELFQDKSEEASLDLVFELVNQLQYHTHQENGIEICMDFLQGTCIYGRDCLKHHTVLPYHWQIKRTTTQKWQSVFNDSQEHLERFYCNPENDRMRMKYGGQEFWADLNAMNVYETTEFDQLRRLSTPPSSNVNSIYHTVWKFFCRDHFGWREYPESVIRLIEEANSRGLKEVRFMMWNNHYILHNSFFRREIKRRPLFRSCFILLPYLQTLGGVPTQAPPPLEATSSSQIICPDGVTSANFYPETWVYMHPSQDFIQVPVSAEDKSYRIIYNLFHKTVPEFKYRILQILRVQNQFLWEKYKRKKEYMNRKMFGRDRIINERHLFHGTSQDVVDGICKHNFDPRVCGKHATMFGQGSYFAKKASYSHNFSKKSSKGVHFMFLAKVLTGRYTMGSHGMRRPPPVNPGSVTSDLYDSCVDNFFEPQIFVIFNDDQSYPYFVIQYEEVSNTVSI
The series is described as follows: PARP7 Chemiluminescent Assay Kit enzyme inhibition assay. The series is classed as biochemical. The settings on record: for inhibition at 0.1 µM: compound at 100 nM. The protocol: Example 60: Inhibitory activity of compounds against PARP7 enzyme
Materials: PARP7 Chemiluminescent Assay Kit, BPS Bioscience; DMSO, Sinopharm, Nivo, PerkinElmer.
Preparation of 10× PBS: 720 mg of KH2PO4, 45 g of NaCl, and 5.311 g of Na2HPO4·12H2O were dissolved in 500 mL of deionized water. The system was adjusted to pH 7.4, sterilized at 121 °C for 30 min, and cooled, and then preserved at 4 °C for later use.
Preparation of 1 × PBS: 10× PBS was diluted 10-fold with deionized water, i.e., 1 part of 10× PBS was diluted with 9 parts of deionized water.
Preparation of wash buffer: 1 × PBS containing 0.05% Tween-20.
Preparation of 1 × PARP buffer: (prepared right before use) 10× PARP buffer was diluted 10-fold with deionized water and placed on ice for later use.
According to the study requirements, the test compound was diluted to the desired concentration with 100% DMSO, and then diluted 10-fold with 1× PARP buffer to give a 10× compound working solution.
• a. 5× histone mixture was thawed on ice the day before the study; • b. 1× histone mixture was prepared by diluting 5× histone mixture into 1× histone mixture with 1× PBS; 25 µL of 1× histone mixture was added to each well of the test plate and incubated overnight at 4 °C; • c. 100 µL of the blocking buffer was taken per well and added to the test plate, and the plate was incubated at 25 °C for 90 min; • d. After the incubation was completed, the liquid in the test plate was discarded, and the plate was washed 3 times; • e. 2.5 µL of compound working solution was taken from each well and added to the test plate according to the experimental layout; a corresponding volume of 1× PARP buffer containing 10% DMSO was added to the positive control wells (Positive control), and a corresponding volume of 1× PARP buffer was added to the blank control wells (Blank); • f. After the enzyme was completely dissolved, the enzyme stock solution was diluted to 6 ng/µL with 1× PARP buffer; • g. The enzyme solution was added to a test well plate at 10 µL/well, and a corresponding volume of 1× PARP buffer was added to the blank control wells, where the enzyme amount was 60 ng/well. Note: this procedure should be performed on ice; • h. […] ELISA ECL Substrate A and ELISA ECL Substrate B in the kit were mixed in a ratio of 1:1, the mixed solution was added to the test plate at 50 µL/well, luminescence detection was immediately performed using Nivo, and the luminescence value (RLU) was read; • m. […] Enzyme inhibition = 1 - % Enzyme Activity; the IC 50 was calculated using GraphPad Prism 8.

For the molecule `O=c1[nH]ncc(NCC#Cc2ccccc2C(F)(F)F)c1C(F)(F)F` [I-A-1, 4-trifluoromethyl-5-((3-(2-(trifluoromethyl)phenyl)prop-2-yn-1-yl)amino)pyridazin-3(2 H)-one], in series [1] (Caco-2, summary in words), the efflux ratio result was “lower efflux ratio” and the membrane permeability result was “better membrane permeability”. For the same molecule, the efflux ratio at 2 h, 5 µM in series [2] (Papp(B-A)/Papp(A-B)) turned out to be 0.52. Moreover, the Papp A→B at 2 h, 5 µM in series [2] (apical to basal, 5 µM, 2 h) was determined as 39.9 ×10⁻⁶ cm/s. For the same molecule, in series [2] (basal to apical, 5 µM, 2 h), the Papp B→A at 2 h, 5 µM amounted to 20.9 ×10⁻⁶ cm/s. In series [3], this molecule gave a half-maximal inhibitory concentration (IC50) of less than 100 nM and an inhibition at 0.1 µM not below 50%.
In series [3], `O=C(CCNc1cn[nH]c(=O)c1C(F)(F)F)c1ccccc1` [I-D-1, 5-((3-oxo-3-phenylpropyl)amino)-4-(trifluoromethyl)pyridazin-3(2 H)-one] came in with an IC50 of less than 100 nM and an inhibition at 0.1 µM not below 50%.
Turning to `C[C@@H](COCCC(=O)N1CCN(c2ncc(C(F)(F)F)cn2)CC1)Nc1cn[nH]c(=O)c1C(F)(F)F` [RBN-2397, reference compound], the membrane permeability result in series [1] (Caco-2, summary in words) is given as “poor membrane permeability”. Further, the “efflux ratio” value in series [1] (Papp(B-A)/Papp(A-B), Caco-2) was found to be 5.9. Moreover, the “PappA→B (1E-6 cm/s)” value in series [1] (apical to basal, 5 µM, 2 h, Caco-2) is given as 4.1 1E-6 cm/s. The “PappB→A (1E-6 cm/s)” value in series [1] (basal to apical, 5 µM, 2 h, Caco-2) is given as 24 1E-6 cm/s.

The values above are taken from patent EP4653424A1, “PYRIDAZINONE PARP INHIBITOR, AND PREPARATION METHOD THEREFOR, AND PHARMACEUTICAL COMPOSITION AND USE THEREOF” (China Pharmaceutical University, priority 2023, dated 2024).
